Laboratory results published in US20230083973A1, “SUBSTITUTED CYCLOPROPYL-2,2'-BIP[…], ANALOGUES THEREOF, AND METHODS USING SAME” (priority 2019, published 2023).
Like-named read-outs stand apart in the source and are kept apart here.

System: HBsAg
Assay: HBsAg assay: inhibition of HBsAg in HepG2.2.15 cells (chemiluminescence immunoassay of supernatant)
Type: cell-based, hepatitis B virus
Conditions: HBsAg in supernatant at day 6 after exposure to compound, 0.5% DMSO
Outline: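 Secreted HBsAg quantified by CLIA in day-6 supernatants of HepG2.2.15 cultures given compound dilutions at 0.5% final DMSO, with one compound/medium replenishment after 2–3 days. Dose-response fits gave EC50 (50% inhibition); viability checked separately by CellTiter-Glo.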

[1] = read-out: sAg EC50, HepG2.2.15 cells
[2] = Hepatitis B virus, HepG2.2.15, 144 h, read-out: sAg EC50, HepG2.2.15 cells

Row | SMILES | EC50 [1] [nM] | EC50 [2] [nM]
1 | Cc1c(C2CC2c2cnc(-c3ncccn3)nc2)ccc(Cl)c1OCC1CC1 (single isomer, unassigned) [Example 62, trans-5-(2-(4-Chloro-3-(cyclopropylmethoxy)-2-methylphenyl)cyclopropyl)-2,2′-bipyrimidine] | 49000 | 
2 | COCCCOc1cc(C2CC2c2cnc(-c3ncccn3)nc2)cc(F)c1F (single isomer, unassigned) [Example 130, trans-5-(2-(3,4-Difluoro-5-(3-methoxypropoxy)phenyl)cyclopropyl)-2,2′-bipyrimidine] | 260 | 
3 | Cc1cc(C2CC2c2cnc(-c3ncccn3)nc2)cc(OCC2CC2)c1Cl (single isomer, unassigned) [Example 49, trans-5-((2-(4-Chloro-3-(cyclopropylmethoxy)-5-methylphenyl)cyclopropyl)-2,2′-bipyrimidine] | 170 | 
4 | COc1c(Cl)ccc(C2CC2c2cnc(-c3ncccn3)nc2)c1F (single isomer, unassigned) [Example 56, trans-5-(2-(4-Chloro-2-fluoro-3-methoxyphenyl)cyclopropyl)-2,2′-bipyrimidine] | 470 | 
5 | COc1cc(C2CC2c2cnc(-c3ncccn3)nc2)cnc1OC (single isomer, unassigned) [Example 183, trans-5-(2-(5,6-Dimethoxypyridin-3-yl)cyclopropyl)-2,2′-bipyrimidine] |  | 910
6 | CN1CC[C@@H](Nc2cc(C3CC3c3cnc(-c4ncccn4)nc3)cc(F)c2F)C1 (single isomer, unassigned) [Example 230] | 7000 | 
7 | COc1cc(F)ccc1C1CC1c1cnc(-c2ncccn2)nc1 (single isomer, unassigned) [Example 8, trans-5-(2-(4-Fluoro-2-methoxyphenyl)cyclopropyl)-2,2′-bipyrimidine] | 450 | 
8 | CO[C@H]1CCN(c2cc(C3CC3c3cnc(-c4ncccn4)nc3)cc(Cl)c2F)C1 (single isomer, unassigned) [Example 116] | 90 | 
9 | COc1c(Cl)ccc(C2CC2c2cnc(-c3ncccn3)nc2)c1C (single isomer, unassigned) [Example 72, trans-5-(2-(4-Chloro-3-methoxy-2-methylphenyl)cyclopropyl)-2,2′-bipyrimidine] | 89 | 
10 | COCCOc1cc(F)c(Cl)cc1C1CC1c1cnc(-c2ncccn2)nc1 (single isomer, unassigned) [Example 156, trans-5-(2-(5-Chloro-4-fluoro-2-(2-methoxyethoxy)phenyl)cyclopropyl)-2,2′-bipyrimidine] | 190 | 
11 | Fc1ccc(C2CC2c2cnc(-c3ncccn3)nc2)cc1OCC(F)F (single isomer, unassigned) [Example 28, trans-5-(2-(3-(2,2-Difluoroethoxy)-4-fluorophenyl)cyclopropyl)-2,2′-bipyrimidine] | 56 | 
12 | Fc1ccc(C2CC2c2cnc(-c3ncccn3)nc2)cc1N1CCCC1 (single isomer, unassigned) [Example 19, trans-5-(2-(4-Fluoro-3-(pyrrolidin-1-yl)phenyl)cyclopropyl)-2,2′-bipyrimidine] |  | 39
13 | COCCCn1ncc2c(C3CC3c3cnc(-c4ncccn4)nc3)cc(F)c(F)c21 (single isomer, unassigned) [Example 266, trans-4-(2-([2,2′-Bipyrimidin]-5-yl)cyclopropyl)-6,7-difluoro-1-(3-methoxypropyl)-1H-indazole] | 2 | 
14 | c1cnc(-c2ncc([C@@H]3C[C@H]3c3cccc4ncccc34)cn2)nc1 (relative stereo) [Example 171, trans-5-(2-([2,2′-Bipyrimidin]-5-yl)cyclopropyl)quinoline] |  | 380
15 | COc1cc(C2CC2c2ccc(-c3ncccn3)nc2)cc(F)c1F (single isomer, unassigned) [Example 125, trans-2-(5-(2-(3,4-Difluoro-5-methoxyphenyl)cyclopropyl)pyridin-2-yl)pyrimidine] | 4 | 
16 | COc1cc(C2CC2c2cnc(-c3ncccn3)nc2)cc(C)c1Cl (single isomer, unassigned) [Example 57, trans-5-(2-(4-Chloro-3-methoxy-5-methylphenyl)cyclopropyl)-2,2′-bipyrimidine] | 63 | 
17 | CO[C@@H]1CCN(c2cc(C3CC3c3cnc(-c4ncccn4)nc3)cc(Cl)c2F)C1 (single isomer, unassigned) [Example 110] |  | 190
18 | Fc1cc(C2CC2c2cnc(-c3ncccn3)nc2)cc(N2CCCC2)c1F (single isomer, unassigned) [Example 92, trans-5-(2-(3,4-Difluoro-5-(pyrrolidin-1-yl)phenyl)cyclopropyl)-2,2′-bipyrimidine] |  | 24
19 | O[C@@H]1CN(c2cc(C3CC3c3cnc(-c4ncccn4)nc3)cc(F)c2F)C[C@H]1O (relative stereo) [Example 239, trans-(3R,4R)-1-(5-(2-([2,2′-Bipyrimidin]-5-yl)cyclopropyl)-2,3-difluorophenyl)pyrrolidine-3,4-diol] |  | 110
20 | Clc1ccc(C2CC2c2cnc(-c3ncccn3)nc2)cc1N1CCCC1 (single isomer, unassigned) [Example 200, trans-5-(2-(4-Chloro-3-(pyrrolidin-1-yl)phenyl)cyclopropyl)-2,2′-bipyrimidine] | 57 | 
21 | COc1cc(C2CC2c2cnc(-c3ncccn3)nc2C)ccc1F (single isomer, unassigned) [Example 18, trans-5-(2-(4-Fluoro-3-methoxyphenyl)cyclopropyl)-4-methyl-2,2′-bipyrimidine] | 890 | 
22 | COc1cc(C2CC2c2cnc(-c3ncccn3)nc2)cc(OC)c1F (single isomer, unassigned) [Example 147, trans-5-(2-(4-Fluoro-3,5-dimethoxyphenyl)cyclopropyl)-2,2′-bipyrimidine] | 10000 | 
23 | Fc1cc(C2CC2c2cnc(-c3ncccn3)nc2)cc(N2CC3(CCOCC3)C2)c1F (single isomer, unassigned) [Example 137, trans-2-(5-(2-([2,2′-Bipyrimidin]-5-yl)cyclopropyl)-2,3-difluorophenyl)-7-oxa-2-azaspiro[3.5]nonane] | 74 | 
24 | Fc1cc([C@@H]2C[C@H]2c2cnc(-c3ncccn3)nc2)cc(N2CC3(COC3)C2)c1F (relative stereo) [Example 209, trans-6-(5-(2-([2,2′-Bipyrimidin]-5-yl)cyclopropyl)-2,3-difluorophenyl)-2-oxa-6-azaspiro[3.3]heptane] |  | 120
25 | Fc1ccc(C2CC2c2cnc(-c3ncccn3)nc2)cc1OCC1CC1 (single isomer, unassigned) [Example 26, trans-5-(2-(3-(Cyclopropylmethoxy)-4-fluorophenyl)cyclopropyl)-2,2′-bipyrimidine] | 29 | 
